Data taken from ChEMBL document CHEMBL5120746, “Novel 5-fluorouracil sensitizers for colorectal cancer therapy: Design and synthesis of S1P receptor 2 (S1PR2) antagonists” (Eur J Med Chem, 2022).
The source made the active and inactive calls. The calls are words filed in the database; no cut-off is given here.

Key:
[1] = Apparent volume of distribution in Sprague-Dawley rat plasma at 1 mg/kg, iv measured up to 24 hrs by HPLC-MS/MS analysis; type: ADME, organism-based; settings: in vivo
[2] = Toxicity in SPF nude mouse xenografted with human SW620/5-FU cells assessed as change in body weight at 7.5 mg/kg, iv QD for 21 days and measured every 4 days in presence of 5-fluorouracil; type: organism-based; settings: in vivo, 504 h, time 21 day
HCT-116 [3] = experiment: Downregulation of DPD expression in DPD expressed human HCT-116 cells measured after 12 hrs by Western blot analysis; type: functional, cell-based; settings: dose 5-40 µM, DDE = dose-dependent effect
SW620/5-FU [4] = experiment: Antitumor activity against human SW620/5-FU cells xenografted in SPF nude mouse assessed as tumor growth inhibition at 30 mg/kg, iv QD for 21 days and measured every 4 days in presence of 5-fluorouracil; type: functional; settings: 504 h, time 21 day, read-out: TGI
SW620/5-FU [5] = experiment: Antitumor activity against human SW620/5-FU cells xenografted in SPF nude mouse assessed as tumor growth inhibition at 7.5 mg/kg, iv QD for 21 days and measured every 4 days; type: functional; settings: 504 h, time 21 day, read-out: TGI
SW620/5-FU [6] = experiment: Downregulation of DPD expression in human SW620/5-FU cells at 10 uM by Western blot analysis; type: functional, cell-based; settings: time 4-48 hrs, TDE = time-dependent effect
SW620/5-FU [7] = experiment: Antitumor activity against human SW620/5-FU cells xenografted in SPF nude mouse assessed as reduction in tumor weight at 7.5 mg/kg, iv QD for 21 days; type: functional; design: scale not given: the % may be the effect or the level left; settings: time 21 day
HCT-116 [8] = experiment: Reversal of 5-FU resistance against 5-FU resistant DPD expressed human HCT-116 cells assessed as reduction in cell viability incubated for 48 hrs in presence of 5-FU by MTT assay; type: functional, cell-based; settings: HCT-116, 48 h
SW620/5-FU [9] = experiment: Antitumor activity against human SW620/5-FU cells xenografted in SPF nude mouse assessed as reduction in tumor weight at 30 mg/kg, iv QD for 21 days in presence of 5-fluorouracil; type: functional; design: scale not given: the % may be the effect or the level left; settings: time 21 day
[10] = MRT (0 to t) in Sprague-Dawley rat blood at 1 mg/kg, iv measured up to 24 hrs by HPLC-MS/MS analysis; type: ADME, organism-based
SW620/5-FU [11] = experiment: Antitumor activity against human SW620/5-FU cells xenografted in SPF nude mouse assessed as reduction in tumor weight at 7.5 mg/kg, iv QD for 21 days in presence of 5-fluorouracil; type: functional; design: scale not given: the % may be the effect or the level left; settings: time 21 day
[12] = Downregulation of DPD expression in tumor of SPF nude mouse xenografted with human SW620/5-FU cells at 30 mg/kg, iv QD for 21 days in presence of 5-fluorouracil by Western blot analysis; type: functional; settings: time 21 day
Mus musculus [13] = experiment: Downregulation of DPD expression in tumor of SPF nude mouse xenografted with human SW620/5-FU cells administered intravenously QD for 21 days by Western blot analysis; type: functional; settings: dose 7.5-15 mg/kg, route iv, time 21.0 day, DDE = dose-dependent effect
[14] = Initial drug concentration in Sprague-Dawley rat plasma at 1 mg/kg, iv measured up to 24 hrs by HPLC-MS/MS analysis; type: ADME, organism-based
[15] = Half life in Sprague-Dawley rat blood at 1 mg/kg, iv measured up to 24 hrs by HPLC-MS/MS analysis; type: ADME, organism-based
[16] = Half life in Sprague-Dawley rat plasma at 1 mg/kg, iv measured up to 24 hrs by HPLC-MS/MS analysis; type: ADME, organism-based; settings: in vivo
[17] = AUC (0 to infinity) in Sprague-Dawley rat blood at 1 mg/kg, iv measured up to 24 hrs by HPLC-MS/MS analysis; type: ADME, organism-based; design: dose 1 mg/kg, time < 24 hrs, route iv
[18] = MRT (0 to infinity) in Sprague-Dawley rat plasma at 1 mg/kg, iv measured up to 24 hrs by HPLC-MS/MS analysis; type: ADME, organism-based
[19] = target: ATP-dependent translocase ABCB1 (Homo sapiens, UniProt P08183); experiment: Reversal of Pgp-mediated paclitaxel resistance in human LCC6MDR cells assessed as P-gp modulating activity by measuring relative fold at 1 uM; type: cell-based
[20] = AUC (0 to infinity) in Sprague-Dawley rat plasma at 1 mg/kg, iv measured up to 24 hrs by HPLC-MS/MS analysis; type: ADME, organism-based; design: dose 1 mg/kg, time < 24 hrs, route iv
HCT-116 [21] = experiment: Antitumor activity against DPD expressed human HCT-116 cells xenografted in SPF nude mouse assessed as tumor growth inhibition at 15 mg/kg, iv QD for 20 days and measured every 4 days in presence of 5-fluorouracil; type: functional; settings: HCT-116, 480 h, time 20 day, read-out: TGI
[22] = Apparent volume of distribution in Sprague-Dawley rat blood at 1 mg/kg, iv measured up to 24 hrs by HPLC-MS/MS analysis; type: ADME, organism-based; settings: read-out: Vd(app)
NCM460 = experiment: Cytotoxicity against human NCM460 cells assessed as reduction in cell viability at 5 to 80 uM; type: toxicity, cell-based; settings: ncm460, 80 µM, dose 5-80 µM
[23] = AUC (0 to t) in Sprague-Dawley rat blood at 1 mg/kg, iv measured up to 24 hrs by HPLC-MS/MS analysis; type: ADME, organism-based; design: dose 1 mg/kg, time < 24 hrs, route iv
[24] = Toxicity in SPF nude mouse xenografted with DPD expressed human HCT-116 cells assessed as change in body weight at 15 mg/kg, iv QD for 20 days and measured every 4 days; type: organism-based; settings: in vivo, 480 h, time 20 day
[25] = Clearance in Sprague-Dawley rat plasma at 1 mg/kg, iv measured up to 24 hrs by HPLC-MS/MS analysis; type: ADME, organism-based; settings: in vivo
[26] = target: Sphingosine 1-phosphate receptor 2 (Homo sapiens, UniProt O95136); experiment: Antagonist activity at S1PR2 in human SW620/5-FU cells assessed as reduction of DPD-catalyzed 5-FU degradation by measuring intracellular 5-FU level at 20 uM measured after 24 hrs by HPLC-UV analysis; type: functional, cell-based; settings: filed as antagonist
[27] = Downregulation of S1PR2 mRNA expression level in DPD expressed human HCT-116 cells at 20 uM measured after 24 hrs by qRT-PCR analysis; type: functional
SW620/5-FU [28] = experiment: Antitumor activity against human SW620/5-FU cells xenografted in SPF nude mouse assessed as tumor growth inhibition at 15 mg/kg, iv QD for 21 days and measured every 4 days in presence of 5-fluorouracil; type: functional; settings: 504 h, time 21 day, read-out: TGI
Mus musculus [29] = experiment: Downregulation of DPD expression in liver of SPF nude mouse xenografted with human SW620/5-FU cells at 15 to 30 mg/kg, iv QD for 21 days in presence of 5-fluorouracil by Western blot analysis; type: functional, organism-based; settings: dose 15-30 mg/kg, time 21.0 day
[30] = Clearance in Sprague-Dawley rat blood at 1 mg/kg, iv measured up to 24 hrs by HPLC-MS/MS analysis; type: ADME, organism-based
Mus musculus [31] = experiment: Downregulation of S1PR2 expression in tumor SPF nude mouse xenografted with human SW620/5-FU cells at 7.5 to 15 mg/kg, iv QD for 21 days by immunohistochemical analysis; type: functional, organism-based; settings: dose 7.5-15 mg/kg, time 21.0 day
SW620/5-FU [32] = experiment: Reversal of 5-FU resistance against human SW620/5-FU cells assessed as reduction in cell viability incubated for 48 hrs in presence of 5-FU by MTT assay; type: functional, cell-based

Chain of Sphingosine 1-phosphate receptor 2 (O95136 whole entry): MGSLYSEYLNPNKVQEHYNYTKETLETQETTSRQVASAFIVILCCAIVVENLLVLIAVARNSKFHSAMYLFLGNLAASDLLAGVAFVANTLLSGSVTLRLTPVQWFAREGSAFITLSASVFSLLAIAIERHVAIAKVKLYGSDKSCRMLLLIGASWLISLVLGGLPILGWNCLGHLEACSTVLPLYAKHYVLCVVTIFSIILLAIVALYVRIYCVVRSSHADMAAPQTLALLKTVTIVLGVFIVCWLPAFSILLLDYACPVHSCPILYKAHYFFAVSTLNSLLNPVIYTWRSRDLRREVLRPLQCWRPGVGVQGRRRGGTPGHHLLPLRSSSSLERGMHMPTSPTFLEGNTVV
Chain of ATP-dependent translocase ABCB1 (P08183 whole entry): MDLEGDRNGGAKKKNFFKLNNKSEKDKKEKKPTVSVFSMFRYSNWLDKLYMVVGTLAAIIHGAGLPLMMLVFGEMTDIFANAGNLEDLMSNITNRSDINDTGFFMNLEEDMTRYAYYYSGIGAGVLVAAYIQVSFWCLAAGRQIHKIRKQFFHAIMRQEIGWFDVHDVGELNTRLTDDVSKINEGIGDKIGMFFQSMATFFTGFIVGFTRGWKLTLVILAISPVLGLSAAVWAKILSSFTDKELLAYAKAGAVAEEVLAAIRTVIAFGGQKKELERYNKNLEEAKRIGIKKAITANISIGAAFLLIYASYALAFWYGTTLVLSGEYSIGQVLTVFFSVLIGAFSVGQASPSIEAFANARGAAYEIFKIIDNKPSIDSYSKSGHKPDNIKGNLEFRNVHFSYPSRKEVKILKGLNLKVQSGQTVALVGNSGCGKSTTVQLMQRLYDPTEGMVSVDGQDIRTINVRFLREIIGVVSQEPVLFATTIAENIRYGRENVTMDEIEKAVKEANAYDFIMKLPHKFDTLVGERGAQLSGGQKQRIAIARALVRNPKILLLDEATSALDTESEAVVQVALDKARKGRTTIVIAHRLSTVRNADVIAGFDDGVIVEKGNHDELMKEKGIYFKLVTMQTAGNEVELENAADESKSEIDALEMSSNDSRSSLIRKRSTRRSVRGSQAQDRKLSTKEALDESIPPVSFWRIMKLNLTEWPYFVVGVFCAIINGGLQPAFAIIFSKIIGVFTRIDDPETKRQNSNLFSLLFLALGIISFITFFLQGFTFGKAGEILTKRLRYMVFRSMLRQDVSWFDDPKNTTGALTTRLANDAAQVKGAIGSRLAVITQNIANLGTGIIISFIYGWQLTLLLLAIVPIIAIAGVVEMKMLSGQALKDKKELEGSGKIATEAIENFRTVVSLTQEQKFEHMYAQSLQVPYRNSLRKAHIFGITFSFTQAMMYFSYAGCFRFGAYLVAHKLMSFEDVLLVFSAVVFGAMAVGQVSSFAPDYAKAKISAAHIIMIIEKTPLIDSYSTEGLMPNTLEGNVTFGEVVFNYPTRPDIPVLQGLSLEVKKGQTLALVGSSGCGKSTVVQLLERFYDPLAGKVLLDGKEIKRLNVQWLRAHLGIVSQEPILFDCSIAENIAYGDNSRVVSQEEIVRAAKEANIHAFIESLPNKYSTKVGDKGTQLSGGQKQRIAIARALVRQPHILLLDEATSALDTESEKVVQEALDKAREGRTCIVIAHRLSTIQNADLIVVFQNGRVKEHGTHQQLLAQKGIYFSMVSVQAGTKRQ

For Cn1ncc2c(-c3ccc(F)cc3)cc(NNC(=O)Nc3cc(Cl)nc(Cl)c3)nc21, the “Vd(app)” value [1] was 2 L/kg, the Activity [2] was “Non-Toxic” and the Activity (HCT-116 [3]) was “Dde”. For the same molecule, the inhibition in vivo at 30 mg/kg (SW620/5-FU [4]) was 62.1%, the inhibition in vivo at 7.5 mg/kg (SW620/5-FU [5]) was 14.7% and the Activity (SW620/5-FU [6]) was “Tde”. For the same molecule, the Activity (SW620/5-FU [7]) was 8.68%, the EC50 (HCT-116 [8]) was 8.21 µM and the Activity (SW620/5-FU [9]) was 60.81%. The MRT last at 24 h [10] was 7.9 h, the Activity (SW620/5-FU [11]) was 47.79% and the Activity [12] was 0.05. For the same molecule, the Activity (Mus musculus [13]) was “Dde”, the C0 at 24 h [14] was 4040 ng/mL and the half-life [15] was 6 h. It also gave a t1/2 [16] of 4.4 h, an AUC(0-inf) [17] of 11200 ng·h/mL and an MRT inf [18] of 8.3 h. For the same molecule, the “fold change (FC)” value [19] was 1.4, the AUC(0-inf) [20] was 11700 ng·h/mL and the inhibition in vivo at 15 mg/kg (HCT-116 [21]) was 70.1%. For the same molecule, the Vd [22] was 1.8 L/kg, the Activity (NCM460) was “Toxic” and the AUC(0-t) at 24 h [23] was 10300 ng·h/mL. The Activity [24] was “Non-Toxic”, the CL [25] was 1.5 mL/min/kg and the Activity [26] was 7.8 µM. The Activity [27] was 25%, the inhibition in vivo at 15 mg/kg (SW620/5-FU [28]) was 52% and the Activity (Mus musculus [29]) was “Active”. For the same molecule, the clearance [30] was 1.5 mL/min/kg, the Activity (Mus musculus [31]) was “Active” and the EC50 (SW620/5-FU [32]) was 9.15 µM.
